Experimental data: patent US9133245B2, “Cyclic lactadherin peptide mimetics and their uses” (TRUSTEES OF BOSTON COLLEGE, priority 2011, dated 2015)
Entries after “also recorded” stand apart in the source; their conditions may differ. Non-standard residues stand in square brackets, D forms with d. No end group written: not given here. Bip = N[C@@H](Cc1ccc(-c2ccccc2)cc1)C(=O)O

Experiments:
[1] = system: phosphatidylserine (PS)-containing liposomes (PC/PS vesicles); assay: Liposome binding assay (Trp-to-dansyl FRET) with large unilamellar vesicles; design: key to Liposome binding assay: “Y” means PS-selective (or apoptotic cell-specific) binding is observed; N means no or insignificant membrane binding is observed; “Nonselective” refers to membrane binding independent on PS; details: for Liposome binding assay: dansyl FRET assay; for binding to PC/PS liposomes (sensitized dansyl emission at 520 nm): PC/PS vesicles; for PS-selective binding in the presence of cholesterol: cholesterol-containing liposomes with PS vs without PS; for binding to lipid vesicles of either composition: vesicles with and without PS
Experimental: The binding of cLac to lipid membrane can be analyzed by any method known it the art. For example, by the fluorescence assay (Trp-to-dansyl FRET) described herein. Basically, large unilamellar vesicles (100 nm in diameter) were prepared with phosphatidylcholine (PC) and varied percentages of PS. All vesicles contained 5% dansyl-labeled PE to serve as a reporting group. The peptide-vesicle binding was monitored by the fluorescence resonance energy transfer (FRET) from Trp to the dansyl group. Emission of sensitized dansyl is monitored at 520 nm and Trp emission is monitored near 350 nm. Membrane binding of cLac to the PC/PS vesicles produces a sensitized dansyl emission at 520 nm with a concurrent decrease of Trp emission near 350 nm.
The peptide-membrane binding was evaluated via a fluorescence assay: large unilamellar vesicles (100 nm in diameter) were prepared with PC and varied percentages of PS. All vesicles contained 5% dansyl-labeled PE to serve as a reporting group. The peptide-vesicle binding was monitored by the fluorescence resonance energy transfer (FRET) from Trp to the dansyl group.

[2] = system: apoptotic HeLa and Jukat cells (STS or CPT treated); assay: Cell imaging of apoptotic cells by epifluorescence microscopy; assay type: cell-based, human; design: key to Cell imaging: “Y” means PS-selective (or apoptotic cell-specific) binding is observed; N means no or insignificant membrane binding is observed; “Nonselective” refers to membrane binding independent on PS; details: for Cell imaging: standard epifluorescence microscopy
Experimental: The fluorescent derivative was tested for its potential to stain apoptotic cells. Cultured HeLa and Jukat cells were treated with the potent apoptogen staurosporine (STS) or camptothecin (CPT) respectively to trigger apoptosis. The experimental conditions were optimized with the FITC-labeled annexin V and the membrane impermeable DNA intercalator propidium iodine (PI). The treatment with 0.1 μM STS or CPT for 4 hours gave a large population of early apoptotic cells (data not shown), which were stained with annexin, but not PI. This indicates increased presence of PS exposure on the outer membrane leaflet of the cells experiencing early apoptosis. […] As negative controls, both fluorescein alone as well as the FITC-labeled linear precursor of cLac were used to label the apoptotic cells and tested for fluorescence staining. […] This observation is consistent with the previous reports that annexin V preferentially binds to cells at the early stages of apoptosis. Since these early apoptotic cells hold their membrane integrity (PI negative), it is believed cLac2-Fl stained the cells by binding to their outer surfaces, presumably to PS.

[3] = system: PS; details: without cofactors; cited from earlier work

Row | Molecule | Liposome binding assay [1] | other results
1 | Lac-1: cLac variant peptide, SEQ. ID. NO. 35 (WGHIQGRGGGD) | N | –
2 | WBipGHIQGppGRGGAD [cLac-PPG-2] | Y | Cell imaging [2]: Y; binding to PC/PS liposomes (sensitized dansyl emission at 520 nm) ([1]; FRET): selective binding; PS-selective binding in the presence of cholesterol [1]: selective binding
3 | DWBipGHIQGGRGGG (DW[Bip]GHIQGGRGGG; not fully specified) [cLac-linear, ID; NO; 43] | N | Cell imaging [2]: N; binding to lipid vesicles of either composition ([1]; FRET): binds to neither type of vesicle
4 | WBipGHIQGRGGGD (cyclo(W[Bip]GHIQGRGGGD); SMILES CC[C@H](C)[C@@H]1NC(=O)[C@H](Cc2c[nH]cn2)NC(=O)CNC(=O)[C@H](Cc2ccc(-c3ccccc3)cc2)NC(=O)[C@H](Cc2c[nH]c3ccccc23)NC(=O)[C@H](CC(=O)O)NC(=O)CNC(=O)CNC(=O)CNC(=O)[C@H](CCCNC(=N)N)NC(=O)CNC(=O)[C@H](CCC(N)=O)NC1=O) [cLac-13G] | Y | –
5 | WBipGHIQGARGGGD (cyclo(W[Bip]GHIQGARGGGD); SMILES CC[C@H](C)[C@@H]1NC(=O)[C@H](Cc2c[nH]cn2)NC(=O)CNC(=O)[C@H](Cc2ccc(-c3ccccc3)cc2)NC(=O)[C@H](Cc2c[nH]c3ccccc23)NC(=O)[C@H](CC(=O)O)NC(=O)CNC(=O)CNC(=O)CNC(=O)[C@H](CCCNC(=N)N)NC(=O)[C@H](C)NC(=O)CNC(=O)[C@H](CCC(N)=O)NC1=O) [cLac-A2] | Y | –
6 | cLac-A3: alanine for glycine linker variant G10A, SEQ. ID. NO. 40 (WFGHIQGGRAGGD; cyclic) | N | –
7 | Lac-2: cLac variant peptide, SEQ. ID. NO. 37 (WGHIQGGRGGGD) | N | –
8 | cLac-1: first cyclic lactadherin mimetic with Trp and Phe as membrane insertion motif, SEQ. ID. NO. 38 (WFGHIQGGRGGGD; cyclic) | N | binding to lipid vesicles of either composition ([1]; FRET): no binding
9 | WBipGHIQGGGRGGGD (cyclo(W[Bip]GHIQGGGRGGGD); SMILES CC[C@H](C)[C@@H]1NC(=O)[C@H](Cc2c[nH]cn2)NC(=O)CNC(=O)[C@H](Cc2ccc(-c3ccccc3)cc2)NC(=O)[C@H](Cc2c[nH]c3ccccc23)NC(=O)[C@H](CC(=O)O)NC(=O)CNC(=O)CNC(=O)CNC(=O)[C@H](CCCNC(=N)N)NC(=O)CNC(=O)CNC(=O)CNC(=O)[C@H](CCC(N)=O)NC1=O) [cLac-33G] | Y | –
10 | WBipGHIQAGRGGGD (cyclo(W[Bip]GHIQAGRGGGD); SMILES CC[C@H](C)[C@@H]1NC(=O)[C@H](Cc2c[nH]cn2)NC(=O)CNC(=O)[C@H](Cc2ccc(-c3ccccc3)cc2)NC(=O)[C@H](Cc2c[nH]c3ccccc23)NC(=O)[C@H](CC(=O)O)NC(=O)CNC(=O)CNC(=O)CNC(=O)[C@H](CCCNC(=N)N)NC(=O)CNC(=O)[C@H](C)NC(=O)[C@H](CCC(N)=O)NC1=O) [cLac-A1] | Y | –
11 | Lac-Tph: cLac variant peptide, SEQ. ID. NO. 39 (WFGHIQGGRGGGD) | Nonselective | –
12 | WBipGHppGQGGRGGGD [cLac-PPG-0] | Y | Cell imaging [2]: Y; binding to PC/PS liposomes (sensitized dansyl emission at 520 nm) ([1]; FRET): selective binding; PS-selective binding in the presence of cholesterol [1]: selective binding
13 | cLac-22G: cLac variant with di-Gly in linker II, SEQ. ID. NO. 42 (WFGHIQGGRGGD; cyclic) | N | dansyl emission / membrane binding compared among linker-length variants ([1]; Trp-to-dansyl FRET, Gly number of linker II varied 2 to 5, or linker I varied): lowest
14 | WBipGHIQGGRGGAD (cyclo(W[Bip]GHIQGGRGGAD); SMILES CC[C@H](C)[C@@H]1NC(=O)[C@H](Cc2c[nH]cn2)NC(=O)CNC(=O)[C@H](Cc2ccc(-c3ccccc3)cc2)NC(=O)[C@H](Cc2c[nH]c3ccccc23)NC(=O)[C@H](CC(=O)O)NC(=O)[C@H](C)NC(=O)CNC(=O)CNC(=O)[C@H](CCCNC(=N)N)NC(=O)CNC(=O)CNC(=O)[C@H](CCC(N)=O)NC1=O) [cLac-A5] | Y | –
15 | D-WBipGHIQGGRGGGD (cyclo([dW][Bip]GHIQGGRGGGD); SMILES CC[C@H](C)[C@@H]1NC(=O)[C@H](Cc2c[nH]cn2)NC(=O)CNC(=O)[C@H](Cc2ccc(-c3ccccc3)cc2)NC(=O)[C@@H](Cc2c[nH]c3ccccc23)NC(=O)[C@H](CC(=O)O)NC(=O)CNC(=O)CNC(=O)CNC(=O)[C@H](CCCNC(=N)N)NC(=O)CNC(=O)CNC(=O)[C@H](CCC(N)=O)NC1=O) [cLac-D-Trp] | Y | –
16 | WBipGHIQGGRGGGD (cyclo(W[Bip]GHIQGGRGGGD); SMILES CC[C@H](C)[C@@H]1NC(=O)[C@H](Cc2c[nH]cn2)NC(=O)CNC(=O)[C@H](Cc2ccc(-c3ccccc3)cc2)NC(=O)[C@H](Cc2c[nH]c3ccccc23)NC(=O)[C@H](CC(=O)O)NC(=O)CNC(=O)CNC(=O)CNC(=O)[C@H](CCCNC(=N)N)NC(=O)CNC(=O)CNC(=O)[C@H](CCC(N)=O)NC1=O) [cLac-2, biphenylalanine replaces Phe] | Y | binding to PC-alone liposomes ([1]; FRET, PC-alone liposomes): no binding; binding to PC/PS liposomes (sensitized dansyl emission at 520 nm) ([1]; FRET): clearly elicits a sensitized dansyl emission; also recorded: only with PC/PS liposomes; binding to cholesterol-containing membranes without PS ([1]; cholesterol-containing PC liposomes): non-specific binding; PS-selective binding in the presence of cholesterol [1]: able to differentiate PS-containing vesicles from PS-absent vesicles; dansyl fluorescence of vesicles containing 20% PS relative to 5% PS ([1]; peptide at saturating concentration 50 μM): close to four-fold; Kd ([1]; titration with PC/PS vesicles, sensitized dansyl emission, read-out: apparent dissociation constant (Kd)): ~15 µM
17 | WBipGHIQGGRGGGGGD (cyclo(W[Bip]GHIQGGRGGGGGD); SMILES CC[C@H](C)[C@@H]1NC(=O)[C@H](Cc2c[nH]cn2)NC(=O)CNC(=O)[C@H](Cc2ccc(-c3ccccc3)cc2)NC(=O)[C@H](Cc2c[nH]c3ccccc23)NC(=O)[C@H](CC(=O)O)NC(=O)CNC(=O)CNC(=O)CNC(=O)CNC(=O)CNC(=O)[C@H](CCCNC(=N)N)NC(=O)CNC(=O)CNC(=O)[C@H](CCC(N)=O)NC1=O) [cLac-25G] | Y | –
18 | WBipGHIQGGRGGGGD (cyclo(W[Bip]GHIQGGRGGGGD); SMILES CC[C@H](C)[C@@H]1NC(=O)[C@H](Cc2c[nH]cn2)NC(=O)CNC(=O)[C@H](Cc2ccc(-c3ccccc3)cc2)NC(=O)[C@H](Cc2c[nH]c3ccccc23)NC(=O)[C@H](CC(=O)O)NC(=O)CNC(=O)CNC(=O)CNC(=O)CNC(=O)[C@H](CCCNC(=N)N)NC(=O)CNC(=O)CNC(=O)[C@H](CCC(N)=O)NC1=O) [cLac-24G] | Y | –
19 | cLac-A4: alanine for glycine linker variant G11A, SEQ. ID. NO. 41 (WFGHIQGGRGAGD; cyclic) | N | –
20 | Lac-1R: cLac variant peptide, SEQ. ID. NO. 36 (GGGRGQIHGWD) | N | –
21 | Lactadherin: 47 kDa glycoprotein, natural PS-binding protein (protein, UniProt Q08431 24-387, looked up) Lactadherin: LDICSKNPCHNGGLCEEISQEVRGDVFPSYTCTCLKGYAGNHCETKCVEPLGLENGNIANSQIAASSVRVTFLGLQHWVPELARLNRAGMVNAWTPSSNDDNPWIQVNLLRRMWVTGVVTQGASRLASHEYLKAFKVAYSLNGHEFDFIHDVNKKHKEFVGNWNKNAVHVNLFETPVEAQYVRLYPTSCHTACTLRFELLGCELNGCANPLGLKNNSIPDKQITASSSYKTWGLHLFSWNPSYARLDKQGNFNAWVAGSYGNDQWLQVDLGSSKEVTGIITQGARNFGSVQFVASYKVAYSNDSANWTEYQDPRTGSSKIFPGNWDNHSHKKNLFETPILARYVRILPVAWHNRIALRLELLGC | – | affinity of binding to PS [3]: nanomolar
22 | FITC-labeled annexin V: naturally occurring 36 kDa PS-binding protein, FITC-labeled (protein, UniProt P08758 2-320, looked up, FITC label) Annexin A5: AQVLRGTVTDFPGFDERADAETLRKAMKGLGTDEESILTLLTSRSNAQRQEISAAFKTLFGRDLLDDLKSELTGKFEKLIVALMKPSRLYDAYELKHALKGAGTNEKVLTEIIASRTPEELRAIKQVYEEEYGSSLEDDVVGDTSGYYQRMLVVLLQANRDPDAGIDEAQVEQDAQALFQAGELKWGTDEEKFITIFGTRSVSHLRKVFDKYMTISGFQIEETIDRETSGNLEQLLLAVVKSIRSIPAYLAETLYYAMKGAGTDDHTLIRVMVSRSEIDLFNIRKEFRKNFATSLYSMIKGDTSGDYKKALLLLCGEDD | – | staining of apoptotic cells ([2]; 0.1 μM STS or CPT for 4 hours, early apoptotic cells): stained
